In this assay the test system is L1210 leukemia ip in BDF1 mice, survival T/C. The assay is described as follows: NCI In Vivo Anticancer Drug Screen. Data for tumor model L1210 Leukemia (intraperitoneal) in B6D2F1 (BDF1) mice. The settings on record: endpoint: mean survival time, higher = longer survival. In short, it runs like this: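 Antitumor effect is assessed in tumor-bearing animals. Survival in the compound arm is compared with a vehicle-dosed control arm and expressed as their quotient.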

[1] abbreviates: dose: 100.0 mg/kg/injection, schedule: Q01DX009 (ip), vehicle: saline with Tween-80.
Where [2] appears, read: dose: 100.0 mg/kg/injection, schedule: Q04DX003 (ip), vehicle: saline with Tween-80.
Where [3] appears, read: dose: 200.0 mg/kg/injection, schedule: Q01DX009 (ip), vehicle: saline with Tween-80.
[4] abbreviates: dose: 200.0 mg/kg/injection, schedule: Q04DX003 (ip), vehicle: saline with Tween-80.
The mark [5] stands for this setting: dose: 400.0 mg/kg/injection, schedule: Q01DX009 (ip), vehicle: saline with Tween-80.
[6] abbreviates: dose: 400.0 mg/kg/injection, schedule: Q04DX003 (ip), vehicle: saline with Tween-80.
Setting [7] is: dose: 100.0 mg/kg/injection, schedule: Q04DX003 (ip), vehicle: Klucel (hydroxypropylcellulose) (HPC).
[8] abbreviates: dose: 200.0 mg/kg/injection, schedule: Q04DX003 (ip), vehicle: Klucel (hydroxypropylcellulose) (HPC).
Where [9] appears, read: dose: 100.0 mg/kg/injection, schedule: Q01DX009 (ip), vehicle: Klucel (hydroxypropylcellulose) (HPC).
Where [10] appears, read: dose: 200.0 mg/kg/injection, schedule: Q01DX009 (ip), vehicle: Klucel (hydroxypropylcellulose) (HPC).
Setting [11] is: dose: 400.0 mg/kg/injection, schedule: Q01DX009 (ip), vehicle: Klucel (hydroxypropylcellulose) (HPC).
[12] abbreviates: dose: 100.0 mg/kg/injection, schedule: Q01DX001 (ip), vehicle: saline.
Where [13] appears, read: dose: 200.0 mg/kg/injection, schedule: Q01DX001 (ip), vehicle: saline.
Setting [14] is: dose: 400.0 mg/kg/injection, schedule: Q01DX001 (ip), vehicle: saline.
The mark [15] stands for this setting: dose: 100.0 mg/kg/injection, schedule: Q04DX002 (ip), vehicle: Klucel (hydroxypropylcellulose) (HPC).
[16] abbreviates: dose: 200.0 mg/kg/injection, schedule: Q04DX002 (ip), vehicle: Klucel (hydroxypropylcellulose) (HPC).
Setting [17] is: dose: 400.0 mg/kg/injection, schedule: Q04DX002 (ip), vehicle: Klucel (hydroxypropylcellulose) (HPC).

Inconclusive results and toxic doses are left out.

We go through 20 compounds from PubChem BioAssay AID248 (DTP/NCI, 2004).

On to `NC(=O)CC(NC(=O)OCc1ccccc1)c1nn[nH]n1` (stereo unspecified), for which the T/C under setting [1] is 104 % of control; the T/C under setting [2] is 91 % of control; the T/C under setting [3] was 106 % of control; the T/C under setting [4] is 102 % of control; the T/C under setting [5] was 98 % of control; the T/C under setting [6] is 91 % of control.
Consider `O=c1oc(=O)c2ccccc2c2ccccc12`, for which the T/C (dose: 100.0 mg/kg/injection, schedule: Q01DX001 (ip), vehicle: other) was 93 % of control; the T/C (dose: 200.0 mg/kg/injection, schedule: Q01DX001 (ip), vehicle: other) is 96 % of control; the T/C (dose: 400.0 mg/kg/injection, schedule: Q01DX001 (ip), vehicle: other) was 107 % of control.
For the compound `OC(c1cc(Nc2ccc(Cl)cc2)nc2ccccc12)C1CCCCN1` (stereo unspecified), the T/C was 95 % of control under setting [7] and 101 % of control under setting [8].
Regarding `CCOC(=O)C/C(=N\NC(=O)c1ccccc1O)C(=O)OCC`, the T/C (dose: 50.0 mg/kg/injection, schedule: Q01DX009 (ip), vehicle: Klucel (hydroxypropylcellulose) (HPC)) was 101 % of control; the T/C under setting [9] is 107 % of control; the T/C under setting [10] is 102 % of control; the T/C under setting [11] is 101 % of control.
Consider `CSc1ccc(OC(=O)Nc2ccccc2C)cc1C`, for which the T/C by setting is: (dose: 100.0 mg/kg/injection, schedule: Q04DX002 (ip), vehicle: saline with Tween-80) 100 % of control; (dose: 200.0 mg/kg/injection, schedule: Q04DX002 (ip), vehicle: saline with Tween-80) 100 % of control; (dose: 400.0 mg/kg/injection, schedule: Q04DX002 (ip), vehicle: saline with Tween-80) 118 % of control.
On to `c1ccc2sc(SSc3nc4ccccc4s3)nc2c1`, for which the T/C was 96 % of control (dose: 50.0 mg/kg/injection, schedule: Q01DX001 (ip), vehicle: saline); 98 % of control under setting [12]; 86 % of control under setting [9]; 97 % of control under setting [7]; 92 % of control under setting [13]; 96 % of control under setting [10]. For the same compound, the T/C runs as follows: under setting [8], 94 % of control; under setting [14], 104 % of control; under setting [11], 90 % of control; (dose: 400.0 mg/kg/injection, schedule: Q04DX003 (ip), vehicle: Klucel (hydroxypropylcellulose) (HPC)) 90 % of control.
With `CCN(CC)CCOc1ccc(/C=C(/C(=O)c2ccccc2)c2ccccc2)cc1`, the T/C (dose: 100.0 mg/kg/injection, schedule: Q04DX003 (sc), vehicle: olive oil, sesame oil, peanut oil) is 101 % of control; the T/C (dose: 200.0 mg/kg/injection, schedule: Q04DX003 (sc), vehicle: olive oil, sesame oil, peanut oil) was 101 % of control; the T/C (dose: 400.0 mg/kg/injection, schedule: Q04DX003 (sc), vehicle: olive oil, sesame oil, peanut oil) was 101 % of control.
In the case of `N#Cc1ccc[n+](CCc2c[nH]c3ccccc23)c1`, the T/C (dose: 75.0 mg/kg/injection, schedule: Q01DX001 (ip), vehicle: saline) is 102 % of control.
For the compound `c1ccc2c(-c3nc4ccccc4[nH]3)cccc2c1`, the T/C under setting [1] was 91 % of control; the T/C under setting [2] was 93 % of control; the T/C under setting [3] is 96 % of control; the T/C under setting [4] is 93 % of control; the T/C under setting [5] is 93 % of control; the T/C under setting [6] was 102 % of control.
Consider `O=[N+]([O-])c1ccn(O)c(=Nc2ccccc2)c1`, for which the T/C reads like this: under setting [12], 108 % of control; under setting [13], 104 % of control; under setting [14], 100 % of control.
`O=C1C(c2c[nH]c3ccc(Br)cc23)=Nc2ccc([N+](=O)[O-])cc21`: the T/C reads like this: under setting [13], 96 % of control; under setting [14], 93 % of control.
For `Cc1ccc(-n2c(O)c(N=Nc3ccc(Br)cc3)c(=O)n(-c3ccccc3)c2=S)cc1`, the T/C is, setting by setting: (dose: 50.0 mg/kg/injection, schedule: Q01DX001 (ip), vehicle: Klucel (hydroxypropylcellulose) (HPC)) 97 % of control; (dose: 100.0 mg/kg/injection, schedule: Q01DX001 (ip), vehicle: Klucel (hydroxypropylcellulose) (HPC)) 111 % of control; (dose: 200.0 mg/kg/injection, schedule: Q01DX001 (ip), vehicle: Klucel (hydroxypropylcellulose) (HPC)) 94 % of control.
In the case of `COC(C/C=C\C=C\CC/C=C/CC(C)/C=C/C(=C\C(=O)O)CC(=O)O)/C(C)=C\C=C(/C)C(=O)O` (stereo unspecified), the T/C was 101 % of control (dose: 0.5 mg/kg/injection, schedule: Q01DX001 (ip), vehicle: saline); 102 % of control (dose: 1.0 mg/kg/injection, schedule: Q01DX001 (ip), vehicle: saline); 102 % of control (dose: 2.0 mg/kg/injection, schedule: Q01DX001 (ip), vehicle: saline); 104 % of control (dose: 4.0 mg/kg/injection, schedule: Q01DX001 (ip), vehicle: saline); 101 % of control (dose: 8.0 mg/kg/injection, schedule: Q01DX001 (ip), vehicle: saline).
In the case of `NCCCCC(N)C(=O)NC1C(CO)OC(n2cnc3c(N)ncnc32)C1O` (stereo unspecified), the T/C is, setting by setting: under setting [12], 101 % of control; under setting [13], 105 % of control; under setting [14], 101 % of control.
For the compound `CCC1(c2ccccc2)C2C(=O)NC(=O)C1C(=O)NC2=O` (stereo unspecified), the T/C was 98 % of control under setting [12], 95 % of control under setting [13] and 101 % of control under setting [14].
`Cc1ccc([N+](=O)[O-])cc1NC(=O)NC(=O)c1ccccc1`: the T/C is, setting by setting: under setting [15], 92 % of control; under setting [16], 95 % of control; under setting [17], 97 % of control.
For `COC1OC(CCl)C(OC(=O)c2ccccc2)C(OC(=O)c2ccccc2)C1OC(=O)c1ccccc1` (stereo unspecified) the same measures were 114 % of control, 101 % of control and 104 % of control.
On to `CCN(CC)S(=O)(=O)c1cccc([N+](=O)[O-])c1`, for which the T/C under setting [1] was 99 % of control.
For `CC(C)NNC(=O)C(N)CCC(=O)O` (stereo unspecified), the T/C is 105 % of control (dose: 25.0 mg/kg/injection, schedule: Q01DX009 (ip), vehicle: saline); 117 % of control (dose: 25.0 mg/kg/injection, schedule: Q04DX003 (ip), vehicle: saline); 91 % of control (dose: 50.0 mg/kg/injection, schedule: Q01DX009 (ip), vehicle: saline); 107 % of control (dose: 50.0 mg/kg/injection, schedule: Q04DX003 (ip), vehicle: saline); 98 % of control (dose: 100.0 mg/kg/injection, schedule: Q01DX009 (ip), vehicle: saline); 91 % of control (dose: 100.0 mg/kg/injection, schedule: Q04DX003 (ip), vehicle: saline). Further, the T/C is, setting by setting: (dose: 200.0 mg/kg/injection, schedule: Q01DX009 (ip), vehicle: saline) 109 % of control; (dose: 200.0 mg/kg/injection, schedule: Q04DX003 (ip), vehicle: saline) 90 % of control; (dose: 400.0 mg/kg/injection, schedule: Q01DX009 (ip), vehicle: saline) 118 % of control; (dose: 400.0 mg/kg/injection, schedule: Q04DX003 (ip), vehicle: saline) 98 % of control.
`O=C(/C=C\C(=O)Nc1ccc(C2=NCCN2)cc1)Nc1ccc(C2=NCCN2)cc1`: the T/C was 124 % of control (dose: 15.0 mg/kg/injection, schedule: Q01DX Z (ip), vehicle: saline); 177 % of control (dose: 30.0 mg/kg/injection, schedule: Q01DX Z (ip), vehicle: saline); 103 % of control (dose: 30.0 mg/kg/injection, schedule: Q01DX Z (oral), vehicle: saline); 170 % of control (dose: 60.0 mg/kg/injection, schedule: Q01DX Z (ip), vehicle: saline); 114 % of control (dose: 60.0 mg/kg/injection, schedule: Q01DX Z (oral), vehicle: saline); 103 % of control (dose: 120.0 mg/kg/injection, schedule: Q01DX Z (oral), vehicle: saline). The T/C (dose: 240.0 mg/kg/injection, schedule: Q01DX Z (oral), vehicle: saline) is 102 % of control.
